# What was measured:
# rat astrocytes = assay: Inhibition of exosome release from primary astrocytes in vitro; format: cell-based; settings: 0.3-10 μM, 2 h after treatment, vs DMSO (0.02%)
# Description: The effect of nSMase2 inhibitors on the manufacturing and release of ceramide rich exosomes from primary astrocytes was investigated as previously described. Dickens, et al. Briefly, rat astrocytes are seeded onto 6-well plates at a density of 20,000 cells/well. Twenty-four hours after seeding, astrocytes are washed with PBS and the medium changed to media without FBS. Absence of FBS mimics a trophic factor withdrawal stimulus causing the release of exosomes via a nSMase2-dependent pathway. Astrocytes are then treated with nSMase2 inhibitors at concentrations in the range 0.03-30 μM. DMSO (0.02%) is used as control. Two hours after treatment, media is collected and centrifuged at 2700 g for 15 min (4° C.). Supernatant is further centrifuged at 10,000 g for 15 min (4° C.) to remove large particles such as apoptotic bodies. Astrocyte-derived extracellular vesicles (EVs) are isolated via ultracentrifugation at 100,000 g for 3 h at 4° C. Fractions containing EV are washed twice with 5 ml PBS and the final pellet resuspended in PBS. This isolation procedure results in the isolation of EVs with a narrow size range and protein markers consistent with exosomes. Dickens, et al. The number of EVs is quantified using ZetaView Nanoparticle Tracker (Particle Metrix GmBH, Meerbusch, Germany) and the corresponding ZetaVeiw software (8.03.04.01). Nanosphere size standard 100 nm (Thermo Scientific) is used to calibrate the instrument prior to sample readings. For each sample 1 mL of the supernatant is injected into the sample-carrier cell and the particle count measured at 5 positions, with 2 cycles of reading per position. Cells are washed with PBS after every sample. Mean concentration of EVs/mL (±SEM) is calculated from 6 replicates. This screening assay is reliable with a Z′=0.75.
# Referring now to FIG. 4A and FIG. 4B, the ability of compound 38 and several of its analogs to inhibit exosome release in vitro was evaluated as previously described. […] Two hours after treatment, exosomes were isolated from the media and quantified using ZetaView Nanoparticle Tracker. The mean concentration of exosomes (EVs/mL±SEM) was calculated from 6 replicate experiments (see FIG. 4). […] Baseline exosome release can be variable between experiments; as a result, inhibition is always compared relative to vehicle treatment within the same experiment. Structures of compounds with their corresponding IC50s are provided in the second row of FIG. 4.
# [1] = Phase I metabolic stability in mouse liver microsomes; format: in vitro ADME; settings: 37° C.
# Description: (§1) Phase I metabolic stability in both mouse and human liver microsomes was performed as described previously. Rais et al. Briefly, compounds are spiked in liver microsomes (mouse, human) and incubated in an orbital shaker at 37° C. […] Compound disappearance is monitored over time using LC/MS/MS.
# [2] = Phase I metabolic stability in human liver microsomes; format: in vitro ADME; settings: 37° C.
# Description: as §1
smiles,measurement,setting,value
"COc1ccc(-c2c(C)nc3c(N4CC[C@@H](NS(=O)(=O)c5ccc(C(F)(F)F)cc5)C4)cc(C)nn23)cc1OC [compound 30, (R)—N-(1-(3-(3,4-dimethoxyphenyl)-2,6-dimethylimidazo[1,2-b]pyridazin-8-yl)pyrrolidin-3-yl)-4-(trifluoromethyl)benzenesulfonamide]",exosome release from astrocytes,rat astrocytes,decreased the number of exosomes released from astrocytes in a dose dependent manner
same,Mouse Liver Microsome (+) NADPH % Remaining at 60 min,[1],15 ± 5%
same,Human Liver Microsome (+) NADPH Remaining at 60 min,[2],61 ± 3%

# Source: patent publication US11427590B2, “Small molecule inhibitors of neutral sphingomyelinase 2 (nSMase2) for the treatment of neurodegenerative diseases” (The Johns Hopkins University, priority 2017, dated 2022)
